US10696692B2, “Amido-benzyl sulfone and sulfoxide derivates” (Forma TM, LLC, priority 2012, dated 2020)
pIC50: −log10 of the molar value. Where two headings read alike, the source gives them in different places.

Assays:
NAMPT = NAMPT (Homo sapiens (Human), UniProt P43490); experiment: Assay 1: Biochemical Inhibition Assay (NAMPT enzymatic reaction, NMN quantified by mass spectrometry);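 also: recombinant His-tagged human NAMPT preincubated with compound 15 min, then reacted 30 min at rt with 1 µM NAM, 100 µM PRPP, 2.5 mM ATP, NMN product read by RapidFire MS, normalized to L-Cystathionine internal standard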
Chain of NAMPT (P43490 whole entry): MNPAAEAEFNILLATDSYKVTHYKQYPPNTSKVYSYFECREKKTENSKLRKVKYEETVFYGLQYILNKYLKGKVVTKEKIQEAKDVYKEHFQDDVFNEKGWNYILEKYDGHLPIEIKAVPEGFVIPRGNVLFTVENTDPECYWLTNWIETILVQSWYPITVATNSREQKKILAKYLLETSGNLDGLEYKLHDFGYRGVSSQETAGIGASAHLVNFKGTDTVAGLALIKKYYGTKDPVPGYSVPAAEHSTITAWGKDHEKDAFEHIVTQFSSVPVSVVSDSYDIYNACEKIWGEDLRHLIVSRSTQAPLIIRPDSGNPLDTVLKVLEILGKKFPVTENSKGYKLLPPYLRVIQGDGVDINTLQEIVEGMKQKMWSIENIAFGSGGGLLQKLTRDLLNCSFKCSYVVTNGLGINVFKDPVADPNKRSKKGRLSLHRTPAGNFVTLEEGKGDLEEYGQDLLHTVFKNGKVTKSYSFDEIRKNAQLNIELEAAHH

A2780 cells = experiment: Assay 2: In-Vitro Cell Proliferation Assay (A2780 cells, SRB readout, 72 hours); assay type: cell-based; details: read-out: Cell Proliferation (IC50);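 also: viable cells counted via sulforhodamine B staining, absorbance at 570 nm, after 72 h exposure at 37 °C, DMSO 0.1% as control, media-only background subtracted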
[1] = Homo sapiens, A2780, 72 h, A2780 cells, 72 hours, SRB

SMILES	pIC50 (NAMPT; read-out: Biochemical (IC50))	pIC50 (A2780 cells; [1])	pIC50 (A2780 cells; A2780 cells, 72 hours, SRB)	pIC50 (NAMPT; Biochemical (IC50))	pIC50 (A2780 cells; Homo sapiens, A2780, 72 h)
CC(C)(C)OC(=O)N1CCCCC12CCCN(S(=O)(=O)c1ccc(CNC(=O)c3ccc4nccn4c3)cc1)C2 (racemic) [Example 123]	7.43	7.76	–	–	–
CC(C)(C)OC(=O)N1C[C@H]2CN(S(=O)(=O)c3ccc(CNC(=O)c4ccc5nccn5c4)cc3)C[C@H]21 (racemic) [Example 128, cis-3-(4-{[(Imidazo[1,2-a]pyridine-6-carbonyl)-amino]-methyl}-benzenesulfonyl)-3,6-diaza-bicyclo[3.2.0]heptane-6-carboxylic acid tert-butyl ester]	7.33	7.94	–	–	–
CC(C)(C)OC(=O)N1C[C@@H]2OCCN(S(=O)(=O)c3ccc(CNC(=O)c4ccc5nccn5c4)cc3)[C@@H]2C1 (racemic) [Example 130, cis-4-(4-{[(Imidazo[1,2-a]pyridine-6-carbonyl)-amino]-methyl}-benzenesulfonyl)-hexahydro-pyrrolo[3,4-b][1,4]oxazine-6-carboxylic acid tert-butyl ester]	7.12	–	7.95	–	–
CC(C)(C)OC(=O)N1CC2CN(S(=O)(=O)c3ccc(CNC(=O)c4ccc5nccn5c4)cc3)CC(C1)O2 (racemic) [Example 133, cis-7-(4-{[(Imidazo[1,2-a]pyridine-6-carbonyl)-amino]-methyl}-benzenesulfonyl)-9-oxa-3,7-diaza-bicyclo[3.3.1]nonane-3-carboxylic acid tert-butyl ester]	6.48	7.01	–	–	–
CC(C)(C)OC(=O)N1CC2CN(S(=O)(=O)c3ccc(CNC(=O)c4ccc5nccn5c4)cc3)CC2C1 (racemic) [Example 137, cis-5-(4-{[(Imidazo[1,2-a]pyridine-6-carbonyl)-amino]-methyl}-benzenesulfonyl)-hexahydro-pyrrolo[3,4-c]pyrrole-2-carboxylic acid tert-butyl ester]	7.98	8.37	–	–	–
C[C@@H]1CN(S(=O)(=O)c2ccc(CNC(=O)c3ccc4nccn4c3)cc2)C[C@H]1O (racemic) [Example 139, trans-Imidazo[1,2-a]pyridine-6-carboxylic acid 4-(3-hydroxy-4-methyl-pyrrolidine-1-sulfonyl)-benzylamide]	7.84	7.99	–	–	–
O=C(NCc1ccc(S(=O)(=O)N2C3COCC2CC(O)C3)cc1)c1ccc2nccn2c1 (racemic) [Example 140, cis-Imidazo[1,2-a]pyridine-6-carboxylic acid 4-(7-hydroxy-3-oxa-9-aza-bicyclo[3.3.1]nonane-9-sulfonyl)-benzylamide]	–	–	–	7.33	7.85
O=C(NCc1ccc(S(=O)(=O)N2C[C@@H]3C[C@H]2CC3(F)F)cc1)c1ccc2nccn2c1 (racemic) [Example 141, cis-Imidazo[1,2-a]pyridine-6-carboxylic acid 4-(5,5-difluoro-2-aza-bicyclo[2.2.1]heptane-2-sulfonyl)-benzylamide]	7.83	8.02	–	–	–
CN1CC2CN(S(=O)(=O)c3ccc(CNC(=O)c4ccc5nccn5c4)cc3)CC(C1)O2 (racemic) [Example 142, cis-Imidazo[1,2-a]pyridine-6-carboxylic acid 4-(7-methyl-9-oxa-3,7-diaza-bicyclo[3.3.1]nonane-3-sulfonyl)-benzylamide]	6.95	7.54	–	–	–
CN1CCC2CN(S(=O)(=O)c3ccc(CNC(=O)c4ccc5nccn5c4)cc3)CC21 (racemic) [Example 144, cis-Imidazo[1,2-a]pyridine-6-carboxylic acid 4-(1-methyl-hexahydro-pyrrolo[3,4-b]pyrrole-5-sulfonyl)-benzylamide]	7.27	8.02	–	–	–
O=C(NCc1ccc(S(=O)(=O)N2C[C@@H]3CC(F)(F)[C@@H]3C2)cc1)c1ccc2nccn2c1 (racemic) [Example 147, cis-Imidazo[1,2-a]pyridine-6-carboxylic acid 4-(6,6-difluoro-3-aza-bicyclo[3.2.0]heptane-3-sulfonyl)-benzylamide]	7.86	7.90	–	–	–
CC1(O)CCN(S(=O)(=O)c2ccc(CNC(=O)c3ccc4nccn4c3)cc2)C1 (racemic) [Example 161, Imidazo[1,2-a]pyridine-6-carboxylic acid 4-(3-hydroxy-3-methyl-pyrrolidine-1-sulfonyl)-benzylamide]	7.28	7.33	–	–	–
CN1C2COCC1CN(S(=O)(=O)c1ccc(CNC(=O)c3ccc4nccn4c3)cc1)C2 (racemic) [Example 162, cis-Imidazo[1,2-a]pyridine-6-carboxylic acid 4-(9-methyl-3-oxa-7,9-diaza-bicyclo[3.3.1]nonane-7-sulfonyl)-benzylamide]	–	–	–	6.91	7.22
O=C(NCc1ccc(S(=O)(=O)N2CC3CC2CC3F)cc1)c1ccc2nccn2c1 (racemic) [Example 164, cis-Imidazo[1,2-alpyridine-6-carboxylic acid 4-(5-fluoro-2-aza-bicyclo[2.2.1]heptane-2-sulfonyl)-benzylamide]	8.09	7.91	–	–	–
CN1C[C@H]2C[C@@H](C1)N(S(=O)(=O)c1ccc(CNC(=O)c3ccc4nccn4c3)cc1)C2 (racemic) [Example 165, cis-Imidazo[1,2-a]pyridine-6-carboxylic acid 4-(3-methyl-3,6-diaza-bicyclo[3.2.1]octane-6-sulfonyl)-benzylamide]	7.02	7.66	–	–	–
O=C(NCc1ccc(S(=O)(=O)N2CC[C@H]3C[C@H]32)cc1)c1ccc2nccn2c1 (racemic) [Example 166, cis-Imidazo[1,2-a]pyridine-6-carboxylic acid 4-(2-aza-bicyclo[3.1.0]hexane-2-sulfonyl)-benzylamide]	7.76	8.02	–	–	–
O=C(NCc1ccc(S(=O)(=O)C2CCCOC2)cc1)c1cc2ccncc2o1 (racemic) [Example 168, Furo[2,3-c]pyridine-2-carboxylic acid 4-(tetrahydro-pyran-3-sulfonyl)-benzylamide]	7.52	7.30	–	–	–
O=C(NCc1ccc(S(=O)(=O)C2CCCOC2)cc1)c1ccc2nccn2c1 (racemic) [Example 169, Imidazo[1,2-a]pyridine-6-carboxylic acid 4-(tetrahydro-pyran-3-sulfonyl)-benzylamide]	7.48	7.70	–	–	–

The next lines start with results.

pIC50 (NAMPT; read-out: Biochemical (IC50))	pIC50 (A2780 cells; [1])	pIC50 (A2780 cells; A2780 cells, 72 hours, SRB)	SMILES	pIC50 (NAMPT; Biochemical (IC50))	pIC50 (A2780 cells; Homo sapiens, A2780, 72 h)
7.76	8.90	–	CC(C)(C)OC(=O)N1CCCC2(C1)CN(S(=O)(=O)c1ccc(CNC(=O)c3ccc4nccn4c3)cc1)CCO2 (racemic) [Example 126, 4-(4-{[(Imidazo[1,2-a]pyridine-6-carbonyl)-amino]-methyl}-benzenesulfonyl)-1-oxa-4,8-diaza-spiro[5.5]undecane-8-carboxylic acid tert-butyl ester]	–	–
7.71	8.49	–	CC(C)(C)OC(=O)N[C@@]12C[C@@H]1CN(S(=O)(=O)c1ccc(CNC(=O)c3ccc4nccn4c3)cc1)C2 (racemic) [Example 132, cis-[3-(4-{[(Imidazo[1,2-a]pyridine-6-carbonyl)-amino]-methyl}-benzenesulfonyl)-3-aza-bicyclo[3.1.0]hex-1-yl]-carbamic acid tert-butyl ester]	–	–
6.78	–	7.31	CC(C)(C)OC(=O)N1CC2OCCN(S(=O)(=O)c3ccc(CNC(=O)c4ccc5nccn5c4)cc3)C2C1 (racemic) [Example 134, cis-4-(4-{([(Imidazo[1,2-a]pyridine-6-carbonyl)-amino]-methyl}-benzenesulfonyl)-hexahydro-pyrrolo[3,4-b][1,4]oxazine-6-carboxylic acid tert-butyl ester]	–	–
7.69	8.26	–	CC(C)(C)OC(=O)N1C[C@H]2CCN(S(=O)(=O)c3ccc(CNC(=O)c4ccc5nccn5c4)cc3)[C@H]2C1 (racemic) [Example 135, cis-1-(4-{[(Imidazo[1,2-a]pyridine-6-carbonyl)-amino]-methyl}-benzenesulfonyl)-hexahydro-pyrrolo[3,4-b]pyrrole-5-carboxylic acid tert-butyl ester]	–	–
7.36	7.41	–	CC(C)(C)OC(=O)N1CC[C@@H]2CN(S(=O)(=O)c3ccc(CNC(=O)c4ccc5nccn5c4)cc3)C[C@@H]21 (racemic) [Example 136, cis-5-(4-{[(Imidazo[1,2-a]pyridine-6-carbonyl)-amino]-methyl}-benzenesulfonyl)-hexahydropyrrolo[3,4-b]pyrrole-1-carboxylic acid tert-butyl ester]	–	–
7.00	7.69	–	CN1CC2CCN(S(=O)(=O)c3ccc(CNC(=O)c4ccc5nccn5c4)cc3)C2C1 (racemic) [Example 143, cis-Imidazo[1,2-a]pyridine-6-carboxylic acid 4-(5-methyl-hexahydro-pyrrolo[3,4-b]pyrrole-1-sulfonyl)-benzylamide]	–	–
7.48	7.73	–	O=C(NCc1ccc(S(=O)(=O)C2CCCOC2)cc1)c1cc2cnccc2[nH]1 (racemic) [Example 154, 1H-Pyrrolo[3,2-c]pyridine-2-carboxylic acid 4-(tetrahydro-pyran-3-sulfonyl)-benzylamide]	–	–
6.66	6.75	–	O=C(NCc1ccc(S(=O)(=O)C2CCCOC2)cc1)c1cnc2[nH]ncc2c1 (racemic) [Example 155, 1H-Pyrazolo[3,4-b]pyridine-5-carboxylic acid 4-(tetrahydro-pyran-3-sulfonyl)-benzylamide]	–	–
7.09	7.24	–	CC(=O)N1C[C@@H]2C[C@H]1CN2S(=O)(=O)c1ccc(CNC(=O)c2ccc3nccn3c2)cc1 (racemic) [Example 163, cis-Imidazo[1,2-a]pyridine-6-carboxylic acid 4-(5-acetyl-2,5-diaza-bicyclo[2.2.1]heptane-2-sulfonyl)-benzylamide]	–	–
7.63	8.06	–	O=C(NCc1ccc(S(=O)(=O)N2CCOC3(CCOC3)C2)cc1)c1ccc2nccn2c1 (racemic) [Example 167, Imidazo[1,2-a]pyridine-6-carboxylic acid 4-(2,6-dioxa-9-aza-spiro[4.5]decane-9-sulfonyl)-benzylamide]	–	–
